# Test results from patent US11945862B2, “Compositions and methods for antibody production” (ImmunoGen, Inc., priority 2017, dated 2024).
# Experiments:
# [1] = Redox potential of antibody solution with media additive over a range of DTT concentrations; type: physicochemical; conditions: 1 mM additive, DTT 0.34 μM to 170 μM, 37° C., 1 h
# M9346A antibody = type: biochemical; conditions: 1 mM additive
# Experimental: Antibody reduction was induced in a biological assay by adding cell lysate to purified monoclonal antibody. […]. Increasing amounts of CHO cell lysate were added to mimic different percentages of cell lysis, ranging from […]. Fresh NADPH was added to a concentration of 400 μM. The mixtures were incubated in a water bath at 37° C. for 1 h. Free thiols were alkylated by addition of 10% (v/v) of 50 mM N-ethyl-maleimide (NEM) solution. Samples were analyzed by non-reduced sodium dodecyl sulfate denaturing capillary electrophoresis (NR-CE-SDS).
# To test the capacity for protection further, the stringency of the assay was increased. […].
# [2] = system: Humanized anti-folate receptor 1 (FOLR1) IgG1; test: Antibody disulfide reduction by damaged CHO cell supernatant (freeze-thaw), thiol per antibody by Ellman's assay; type: biochemical; conditions: for thiol/antibody ratio: about 2.5 hours, control 5.5; for thiol per antibody: 2.2 hours
# Experimental: (§1) For all of the examples described below, cell damage was simulated by multiple freeze-thaw cycles of cells, by addition of RIPA buffer (50 mM Tris-HCl, pH 7.4, 1% NP-40, 0.5% sodium deoxycholate, 0.1% sodium dodecylsulfate), or by using microfluidizer. This damaged cell supernatant or lysate was then incubated with a buffered solution containing antibody with or without the anti-reduction agent being tested, following which the extent of the antibody-disulfide reduction was measured using Ellman's assay for thiol (P. W. Riddles, R. L. Blakeley, and B. Zerner, Methods Enzymol., 91, 49-60, 1983) or by non-reducing SDS protein LabChip analysis. The total thiol level present in the mixture of damaged cell supernatant/lysate was measured initially.
# (§2) A simulated, damaged CHO cell suspension was prepared using 300 million CHO cells per ml phosphate buffered saline (PBS), which was subjected to three freeze-thaw cycles under vacuum, followed by pelleting of cell debris by centrifugation, and storage of the supernatant at −80° C.
# The concentration of thiol in the suspension of damaged CHO cells was measured as 4 mM using DTNB ((5,5′-dithiobis(2-nitrobenzoic acid); Ellman's reagent). Humanized anti-folate receptor 1 (FOLR1) IgG1 (1 mg) was immobilized on 0.05 ml of Protein A bead (RepliGen) and then treated with pre-mixed 0.5 ml PBS and 0.1 ml damaged CHO cell supernatant. The concentration of thiol in this mixture was 0.67 mM.
# The sample was rotated for about 2.2 hours at ambient temperature, following which the supernatant was removed and the beads were washed with PBS four times (1.5 ml each). The thiol content of the immobilized antibody on the beads was then analyzed by the addition of 0.6 ml of PBS containing 0.5 mM DTNB, rotation for about 10 minutes, centrifugation, and measurement of the absorbance of the supernatant at 412 nm.
# Methylene blue was then tested at different concentrations to determine whether it could protect against disulfide bond reduction during the incubation of antibody with damaged CHO cell supernatant. FIG. 1 is a graph showing the results of immobilized 1 mg humanized IgG1 with pre-mixed 0.5 ml PBS and 0.1 ml damaged CHO cell supernatant in the presence of methylene blue, rotation for 2.2 hours at ambient temperature, and a similar thiol analysis of immobilized antibody as above. Unexpectedly, very low concentrations of methylene blue (0.025 and 0.05 mM) protected against the reduction of antibody disulfide bonds.
# In a similar experiment, a sample containing 1 mg immobilized antibody was incubated with a mixture of damaged CHO cell supernatant and 0.05 mM methylene blue for 2.2 hours, followed by washing of beads as above, after which the antibody was eluted from Protein A bead using 100 mM acetic acid containing 150 mM NaCl, neutralized to pH 7 by addition of 1.25 M […] solution. Using an aliquot of the neutralized eluted antibody sample, the thiol per antibody was measured as 0.002 thiol per antibody using DTNB, thus indicating the protection against antibody disulfide reduction by methylene blue. […]
# CHO cells = test: Viability of CHO cells after 1 day treatment; conditions: 0.75 mM, control 98.9%
# humanized N901 antibody = test: Antibody disulfide reduction by CHO cell lysate (RIPA buffer), thiol/antibody by Ellman's assay; type: biochemical; conditions: for thiol/antibody ratio: 3 hours, lysate thiol 2.1 mM, control 5.74
# Experimental: as §1
# The effect of 1,2-naphthoquinone-4-sulfonic acid (NQS) on antibody-disulfide reduction was studied by incubating 1,2-naphthoquinone-4-sulfonic acid at several concentrations with antibody and damaged CHO lysate. The damaged CHO cell lysate was generated by the addition of 0.5 ml RIPA buffer (50 mM Tris-HCl, pH 7.4, 1% NP-40, 0.5% sodium deoxycholate, 0.1% sodium dodecylsulfate) to 100 million CHO cells. The thiol concentration in CHO cell lysate was measured by Ellman's assay as 2.1 mM.
# Each sample contained pre-mixed 0.5 ml RIPA buffer (50 mM Tris-HCl, pH 7.4, 1% NP-40, 0.5% sodium deoxycholate, 0.1% sodium dodecylsulfate) with 1 mg humanized N901 antibody, with or without 1,2-naphthoquinone-4-sulfonic acid (25 micromolar, or 50 micromolar, or 100 micromolar), which was added to a cell pellet of 100 million CHO cells, and the resuspended cells were incubated at ambient temperature for 30 minutes, following which the cell debris were pelleted by centrifugation (16,000 g, 5 min). The supernatant from each sample was added to 50 microliter immobilized-Protein A beads (RepliGen) and rotated at ambient temperature for 3 hours, after which the supernatant was removed and the beads washed with PBS.
# (§3) The thiol content of the immobilized antibody was determined by the addition of 0.6 ml of PBS containing 0.5 mM DTNB (Ellman's reagent) to the beads, rotation for about 10 minutes, centrifugation, and absorbance measurement of supernatant at 412 nm.
# The effect of anthraquinone-2-sulfonic acid (AQS) on antibody-disulfide reduction was studied during co-incubation of anthraquinone-2-sulfonic acid with antibody and damaged CHO lysate. Each sample contained pre-mixed 1 ml RIPA buffer (50 mM Tris-HCl, pH 7.4, 1% NP-40, 0.5% sodium deoxycholate, 0.1% sodium dodecylsulfate) with 1 mg humanized N901 antibody, with or without 0.2 mM anthraquinone-2-sulfonic acid (AQS), which was added to a cell pellet of 100 million CHO cells, and the resuspended cells were incubated at ambient temperature for 30 minutes, following which the cell debris were pelleted by centrifugation (16,000 g, 5 min). The thiol concentration in CHO cell lysate was 1 mM (Ellman's assay).
# as §3, with “The supernatant from each sample was added to 50 microliter immobilized-Protein A beads (RepliGen) and rotated at ambient temperature for 3 hours, after which the supernatant was removed and the beads washed with PBS. The” for “The”
# In another experiment, 1 mg huN901 antibody was incubated with CHO lysate, with or without 0.4 mM anthraquinone-2-sulfonic acid for 4 hours. The mixture was then analyzed for thiol/antibody as above.
# The thiol concentration in CHO cell lysate was 1 mM (Ellman's assay).
# The supernatant from each sample was added to 50 microliter immobilized-Protein A beads (RepliGen) and rotated at ambient temperature for 3 hours, after which the supernatant was removed and the beads washed with PBS. […]
# [3] = system: Humanized N901 (Anti-CD56 IgG1); test: Antibody disulfide reduction by damaged CHO cell supernatant (freeze-thaw), thiol per antibody by Ellman's assay; type: biochemical; conditions: for protection toward antibody-disulfide reduction: 0.2 and 0.1 mM agent; for protection toward antibody-disulfide reduction / thiol per antibody: total thiol 0.8 mM; for thiol/antibody ratio: about 2.5 hours, total thiol 0.4 mM, control 1.99; for thiol per antibody: about 1.5 hours, control 6.4
# Experimental: as §1, §2
# Humanized N901 (Anti-CD56 IgG1; 1 mg) was immobilized on 0.05 ml of Protein A bead (RepliGen) and then treated with pre-mixed 0.4 ml PBS and 0.1 ml damaged CHO cell supernatant (described in Example 1) with or without the addition of coenzyme Q analogs. The concentration of thiol in these mixtures was 0.8 mM.
# The samples were rotated for about 1.5 hours at ambient temperature, following which the supernatant was removed and the beads washed with PBS three times. The thiol content of the immobilized antibody on the beads was then analyzed by the addition of 0.6 ml of mixture of PBS and 0.5 mM DTNB, rotation for about 10 minutes, centrifugation, and measurement of the absorbance of the supernatant at 412 nm. The number of thiol residues per antibody molecule after incubation with damaged CHO cell supernatant (without any coenzyme Q analog) was measured as 6.4 thiol/antibody.
# Humanized N901 IgG1 (1 mg) was immobilized on 0.05 ml of Protein A bead (RepliGen) and treated with pre-mixed 0.45 ml PBS and 0.05 ml damaged CHO cell supernatant with or without 0.1 mM and 0.2 mM disulfiram (also named as tetraethylthiuram disulfide; added using a stock solution of disulfiram in DMSO). The concentration of total thiol (derived from damaged cells) in this mixture was 0.4 mM.
# The samples were rotated for about 2.5 hours at ambient temperature, then centrifuged to pellet beads, following which the supernatants were removed and the beads washed with PBS four times. The thiol content of the immobilized antibody on the beads was then analyzed by the addition of 0.6 ml PBS containing 0.5 mM DTNB to the beads, rotation for about 30 minutes, centrifugation, and measurement of the absorbance of the supernatant at 412 nm.
# [4] = system: Humanized FOLR1 IgG1 antibody; test: Antibody disulfide reduction by CHO cell lysate (RIPA buffer), thiol per antibody by Ellman's assay; type: biochemical; conditions: 5 mM agent, 100 mM phosphate buffer pH 7, 2 hours
# Experimental: Lysates of CHO cells (˜60 million cells lysed in 0.6 ml RIPA buffer and clarified by centrifugation) were added to each of these mixtures. The pH values of all samples were adjusted to 7. […] The samples were incubated with 200 microliter immobilized-Protein A beads (RepliGen) and rotated at ambient temperature for 3 hours, after which the supernatant was removed and the beads washed with PBS. The thiol content of the immobilized antibody was determined by the addition of 0.2 ml of PBS containing 0.5 mM DTNB (Ellman's reagent) to the beads, rotation for about 10 minutes, centrifugation, and absorbance measurement of the supernatant at 412 nm.
# The pH values of all samples were adjusted to 7. The samples were incubated with 200 microliter immobilized-Protein A beads (RepliGen) and rotated at ambient temperature for 3 hours, after which the supernatant was removed and the beads washed with PBS. The thiol content of the immobilized antibody was determined by the addition of 0.2 ml of PBS containing 0.5 mM DTNB (Ellman's reagent) to the beads, rotation for about 10 minutes, centrifugation, and absorbance measurement of the supernatant at 412 nm.
# To test the effect of L-cystine bis(t-butyl ester) (CDBE) on protecting antibody disulfide bonds from reduction by CHO lysate, humanized FOLR1 IgG1 antibody (2 mg) was incubated with CHO lysate in RIPA buffer (0.6 ml lysate of 60 million CHO cells in 0.6 ml RIPA buffer, clarified by centrifugation) without or with 0.5 or 1 mM CDBE. The samples were rotated at ambient temperature with 200 microliter immobilized-Protein A beads (RepliGen) for 2 hours, after which the supernatant was removed and the beads washed with PBS. The thiol content of the immobilized antibody was determined by the addition of 0.2 ml of PBS containing 0.5 mM DTNB (Ellman's reagent) to the beads, centrifugation, and absorbance measurement of the supernatant at 412 nm.
# The samples were rotated at ambient temperature with 200 microliter immobilized-Protein A beads (RepliGen) for 2 hours, after which the supernatant was removed and the beads washed with PBS. The thiol content of the immobilized antibody was determined by the addition of 0.2 ml of PBS containing 0.5 mM DTNB (Ellman's reagent) to the beads, centrifugation, and absorbance measurement of the supernatant at 412 nm.
compound,measurement,setting,value
"N[C@@H](CS)C(=O)O [cysteine, reference compound]",modulation of redox potential,[1],"constant redox potential at low concentrations of DTT, followed by a slow decrease at higher DTT concentrations"
same,intact antibody,"M9346A antibody; lysate mimicking 120% cell lysis, 400 μM NADPH, 37° C., 1 h, control 40%",~70%
"O=C(O)CCCCC1CCSS1 (racemic) [lipoic acid, 1,2-dithiolane-3-pentanoic acid]",thiol/antibody ratio,"[2]; 0.5 mM agent, total thiol 0.67 mM",1.88
same,thiol/antibody ratio,"[2]; 2 mM agent, total thiol 0.67 mM",1.08
same,viability of CHO cells,CHO cells,98.1%
"CCOC(=O)[C@@H](N)CSSC[C@H](N)C(=O)OCC [CDEE, L-cystine diethyl ester]",thiol/antibody,"humanized N901 antibody; 0.75 mM agent, 4° C. overnight, control 2.29",1.02 thiol/antibody
"COC1=C(OC)C(=O)C(C/C=C(\C)CC/C=C(\C)CC/C=C(\C)CC/C=C(\C)CC/C=C(\C)CC/C=C(\C)CC/C=C(\C)CC/C=C(\C)CC/C=C(\C)CCC=C(C)C)=C(C)C1=O [coenzyme Q10, reference compound]",protection toward antibody-disulfide reduction,[3],did not show significant protection
CC(=O)N[C@@H](CSSC[C@H](NC(C)=O)C(=O)O)C(=O)O [Di-N-acetyl L-cystine],decrease in disulfide reduction compared to the control,[4],about 64%
same,thiol per antibody,[4]; control 1.16,about 0.42 thiol per antibody
O=S(=O)([O-])[O-].[Zn+2] [zinc],protection at increased assay stringency,M9346A antibody; conditions where control without additive was 100% fragmented,protective of disulfide reduction
"CN(C)c1ccc2nc3ccc(N(C)C)cc3[s+]c2c1 [methylene blue, Methylene blue]",thiol per antibody,"[2]; 0.025 mM agent, total thiol 0.67 mM, control 4.2",0.38 thiol per antibody
same,thiol per antibody,"[2]; 0.05 mM agent, antibody eluted from Protein A bead and neutralized",0.002 thiol per antibody
same,thiol per antibody,"[2]; 0.05 mM agent, total thiol 0.67 mM, control 4.2",0.33 thiol per antibody
"CCN(CC)C(=S)SSC(=S)N(CC)CC [disulfiram, tetraethylthiuram disulfide, reference compound]",thiol/antibody ratio,[3]; 0.1 mM agent,0.14
same,thiol/antibody ratio,[3]; 0.2 mM agent,0.03
oxidized glutathione [GSSG],thiol/antibody,"humanized N901 antibody; 2 mM GSSG alone, 2.5 hours, lysate thiol 1 mM, control 5.63",0.98 thiol/antibody
N[C@@H](CSSC[C@H](N)C(=O)O)C(=O)O [cystine],modulation of redox potential,[1],step-wise modulation of redox potential
"O=C1C=C(S(=O)(=O)O)c2ccccc2C1=O [NQS, 1,2-naphthoquinone-4-sulfonic acid]",thiol/antibody ratio,humanized N901 antibody; 0.025 mM agent,3.4
same,thiol/antibody ratio,humanized N901 antibody; 0.05 mM agent,2.2
same,thiol/antibody ratio,humanized N901 antibody; 0.1 mM agent,1.25
"COC1=C(OC)C(=O)C(C/C=C(\C)CCC=C(C)C)=C(C)C1=O [coenzyme Q2, 2,3-dimethoxy-5-methyl-6-geranyl-p-benzoquinone]",protection toward antibody-disulfide reduction,[3],decreased antibody disulfide-reduction
"COC1=C(OC)C(=O)C(C)=CC1=O [coenzyme Q0, 2,3-dimethoxy-5-methyl-p-benzoquinone]",thiol per antibody,[3]; 0.1 mM agent,0.63 thiol per antibody
same,thiol per antibody,[3]; 0.2 mM agent,0.34 thiol per antibody
